Reference: patent publication US20260234115A1, “LIPID COMPOUNDS, COMPOSITIONS, AND USES THEREOF” (Liberate Bio, Inc., priority 2023, published 2026)
Marks after values point to notes of the source that are not given here.

Columns and labels:
[1] = Plate-based fluorescence (RiboGreen) assay: nucleic acid cargo content and encapsulation efficiency of LNPs; type: physicochemical; conditions: for EE (%) N/P:6: LNP
Method: (§1) Lipids and active ingredients (e.g., RNA, DNA, etc.) were assembled into LNPs using microfluidic mixing. An ethanol phase was prepared by solubilizing ionizable lipids (i.e., lipid compounds), phospholipids (e.g., DSPC), cholesterol, and PEG lipids in ethanol, at predetermined mol % ratios given in Table 2. An aqueous phase was prepared by diluting a nucleic acid cargo (e.g., firefly luciferase mRNA) in an acidified buffer (pH 4.0 citrate buffer, 50 mM). A chip with microfluidic mixing architecture (e.g., toroidal mixer) was used to mix the two phases at predetermined flow rate ratios (e.g., 9 ml/min for the aqueous phase and 3 ml/min for the ethanol phase). Resulting LNPs comprising the lipids and encapsulating the nucleic acid cargo were dialyzed against PBS pH 7.4 for 2 hours at room temperature in a 20 kDa MWCO dialysis membrane. Then, PBS was refreshed to continue dialysis overnight at 2-8 TC. Upon completion of the buffer exchange, LNPs were optionally concentrated using a ultracentrifugal unit with a 10-100 kDa MWCO membrane.
c. Plate-Based Fluorescence (RiboGreen) Assay
Nucleic acid cargos in the LNPs were quantified by RiboGreen assay, against a nucleic acid standard curve. LNPs encapsulating nucleic acid cargo were mixed with 1× Tris-EDTA (TE) and 2% triton in TE, separately, to achieve dilutions required by the assay. Then, the samples were heated at 30° C. and vortexed at 300 rpm. Samples were plated into 96-well plates and RiboGreen reagent was added into each well. Following incubation in the dark, fluorescence was measured from the wells, and plotted against the standard curve. Nucleic acid concentration obtained from the Triton-treated samples were used for total cargo concentration quantification. Only TE diluted sample fluorescence values were used to determine the non-encapsulated (free) cargo, and their ratio was used to determine the encapsulation efficiency (EE %).

[2] = Dynamic light scattering: LNP particle size and PDI; type: physicochemical; conditions: for PDI N/P:6 / Size (nm) N/P:6: LNP
Method: as §1
d. Dynamic Light Scattering
LNPs were diluted with PBS pH 7.4 to predetermined dilution ranges based on the process step and LNP concentration. Following mixing, the particle size and PDI were measured by a dynamic light scattering instrument.

mouse organs = experiment: In vivo activity screening in mice: organ mean total flux (p/s) of luciferase activity after injection of F2 LNP pools (Table 6, FIG. 7A-7C); conditions: luciferase mRNA
How it was run: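 C57BL/6J mice given one tail-vein injection of pooled Formulation F2 LNPs carrying firefly luciferase mRNA (0.25-3 mg/kg) in PBS. At 4-6 h, s.c. D-luciferin given; organs imaged ex vivo by IVIS within 10-15 min, after saline cardiac perfusion. Mean total flux (p/s) per organ ROI.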

[3] = LNP compositions for Formulation F2 Study
[4] = LNP compositions for in vivo mouse study, four formulations (F1-F4) pooled, or pools of four compounds
[5] = LNP compositions for in vivo mouse study, four formulations (F1-F4) of the lipid compound pooled, or pools of four compounds (sixteen compositions)

EE % [1, 4] | mRNA Content [1, 4] | EE (%) N/P:6 ([1]; Formulation F1, N/P 6) | EE (%) N/P:6 ([1]; Formulation F2, N/P 6) | EE (%) N/P:6 ([1]; Formulation F3, N/P 6) | EE (%) N/P:6 ([1]; Formulation F4, N/P 6) | Particle Size (nm) [2, 5] | PDI [2, 4] | PDI N/P:6 ([2]; Formulation F1, N/P 6) | Size (nm) N/P:6 ([2]; Formulation F1, N/P 6) | PDI N/P:6 ([2]; Formulation F2, N/P 6) | Size (nm) N/P:6 ([2]; Formulation F2, N/P 6) | PDI N/P:6 ([2]; Formulation F3, N/P 6) | Size (nm) N/P:6 ([2]; Formulation F3, N/P 6) | PDI N/P:6 ([2]; Formulation F4, N/P 6) | Size (nm) N/P:6 ([2]; Formulation F4, N/P 6) | SMILES | also measured
97% | 100 µg/mL | 99% | 99% | 99% | 99% | 81.1 nm | 0.066 | 0.04 | 67 ± 1 nm | 0.02 | 78 ± 1 nm | 0.03 | 96 ± 2 nm | 0.05 | 65 ± 2 nm | CCCCCCC(CCC(=O)OCC(COC(=O)CCCCCCOC(=O)C(CCCC)CCCCCC)(COC(=O)CCCCCCOC(=O)C(CCCC)CCCCCC)COC(=O)CCCCCCOC(=O)C(CCCC)CCCCCC)OC(=O)NCCN1CCCC1 (stereo not drawn) [Compound 18, [7-[2,2-bis[7-(2-butyloctanoyloxy)heptanoyloxymethyl]-3-[4-(2-pyrrolidin-1-ylethylcarbamoyloxy)decanoyloxy]propoxy]-7-oxo-heptyl]2-butyloctanoate] | EE % [1, 3]: 98%; PDI [2, 3]: 0.059; Particle Size (nm) [2, 3]: 92.2 nm
96% | 84 µg/mL | 99% | 99% | 98% | 99% | 82.6 nm | 0.125 | 0.14 | 73 ± 7 nm | 0.07 | 82 ± 2 nm | 0.04 | 92 ± 0 nm | 0.15 | 64 ± 0 nm | CCCCC/C=C\CCOC(=O)CCCCCC(=O)OCC(COC(=O)CCCCCCOC(=O)C(CCCC)CCCCCC)(COC(=O)CCCCCC(=O)OCC/C=C\CCCCC)COC(=O)CCC(CCCCCC)OC(=O)NCCN1CCCC1 (stereo not drawn) [Compound 16, O7-[2-[7-(2-butyloctanoyloxy)heptanoyloxymethyl]-2-[[7-[(Z)-non-3-enoxy]-7-oxo-heptanoyl]oxymethyl]-3-[4-(2-pyrrolidin-1-ylethylcarbamoyloxy)decanoyloxy]propyl]O1-[(Z)-non-3-enyl]heptanedioate] | –
96% | 80 µg/mL | 98% | 96% | 98% | 99% | 84.4 nm | 0.12 | 0.12 | 70 ± 0 nm | 0.08 | 88 ± 3 nm | 0.06 | 97 ± 3 nm | 0.16 | 66 ± 3 nm | CCCCC/C=C\C/C=C\CCCCCCCC(=O)OCC(COC(=O)CCCCCCC/C=C\C/C=C\CCCCC)(COC(=O)CCC(CCCCCC)OC(=O)NCCN1CCCC1)COC(=O)CC12CC3CC(CC(C3)C1)C2 (stereo not drawn) [Compound 5, [2-[[2-(1-adamantyl)acetyl]oxymethyl]-2-[[(9Z,12Z)-octadeca-9,12-dienoyl]oxymethyl]-3-[4-(2-pyrrolidin-1-ylethylcarbamoyloxy)decanoyloxy]propyl](9Z,12Z)-octadeca-9,12-dienoate] | –
– | – | – | – | – | – | – | – | – | – | – | – | – | – | – | – | CCCCC/C=C\CCOC(=O)CCCCC(=O)OCC(COC(=O)CCCCC(=O)OCC/C=C\CCCCC)(COC(=O)CCC(CCCCCC)OC(=O)NCCN1CCCC1)COC(=O)C1(C2CCCCC2)CCCCC1 (stereo not drawn) [Compound 96, O6-[2-[(1-cyclohexylcyclohexanecarbonyl)oxymethyl]-2-[[6-[(Z)-non-3-enoxy]-6-oxo-hexanoyl]oxymethyl]-3-[4-(2-pyrrolidin-1-ylethylcarbamoyl-oxy)decanoyloxy]propyl]O1-[(Z)-non-3-enyl]hexanedioate] | Organ Mean Total Flux Femur (mouse organs; Mouse 12, dose 0.5 mg/kg): 3.4 p/s (×10^6); Organ Mean Total Flux Heart (mouse organs; Mouse 12, dose 0.5 mg/kg): 0.4 p/s (×10^6); Organ Mean Total Flux Kidney (mouse organs; Mouse 12, dose 0.5 mg/kg): 0.9 p/s (×10^6); Organ Mean Total Flux Liver (mouse organs; Mouse 12, dose 0.5 mg/kg): 213.0 p/s (×10^6); Organ Mean Total Flux Lung (mouse organs; Mouse 12, dose 0.5 mg/kg): 9.0 p/s (×10^6); Organ Mean Total Flux Muscle (mouse organs; Mouse 12, dose 0.5 mg/kg): 11.9 p/s (×10^6); Organ Mean Total Flux Pancreas (mouse organs; Mouse 12, dose 0.5 mg/kg): 0.9 p/s (×10^6); Organ Mean Total Flux Spleen (mouse organs; Mouse 12, dose 0.5 mg/kg): 6.6 p/s (×10^6)
– | – | – | – | – | – | – | – | – | – | – | – | – | – | – | – | CCCCC/C=C\CCOC(=O)CCCCCC(=O)OCC(COC(=O)CCCCCC(=O)OCC/C=C\CCCCC)(COC(=O)CCCCCC(=O)OCC/C=C\CCCCC)COC(=O)CCC(CCCC)OC(=O)NCCN1CCCC1 (stereo not drawn) [Compound 26, O7-[2,2-bis[[7-[(Z)-non-3-enoxy]-7-oxo-heptanoyl]oxymethyl]-3-[4-(2-pyrrolidin-1-ylethylcarbamoyloxy)octanoyloxy]propyl]O1-[(Z)-non-3-enyl]heptanedioate] | Organ Mean Total Flux Femur (mouse organs; Mouse 11, dose 0.5 mg/kg): 20.0 p/s (×10^6); Organ Mean Total Flux Heart (mouse organs; Mouse 11, dose 0.5 mg/kg): 1.2 p/s (×10^6); Organ Mean Total Flux Kidney (mouse organs; Mouse 11, dose 0.5 mg/kg): 4.4 p/s (×10^6); Organ Mean Total Flux Liver (mouse organs; Mouse 11, dose 0.5 mg/kg): 481.0 p/s (×10^6); Organ Mean Total Flux Lung (mouse organs; Mouse 11, dose 0.5 mg/kg): 26.9 p/s (×10^6); Organ Mean Total Flux Muscle (mouse organs; Mouse 11, dose 0.5 mg/kg): 6.2 p/s (×10^6); Organ Mean Total Flux Pancreas (mouse organs; Mouse 11, dose 0.5 mg/kg): 8.2 p/s (×10^6); Organ Mean Total Flux Spleen (mouse organs; Mouse 11, dose 0.5 mg/kg): 152.7 p/s (×10^6)
– | – | – | – | – | – | – | – | – | – | – | – | – | – | – | – | CCCC/C=C\CCOC(=O)CCCCCCC(=O)OCC(COC(=O)CCCCCCC(=O)OCC/C=C\CCCC)(COC(=O)CCCCCCC(=O)OCC/C=C\CCCC)COC(=O)CCC(CCCCCC)OC(=O)NCCN1CCCC1 (stereo not drawn) [Compound 43, O8-[2,2-bis[[8-[(Z)-oct-3-enoxy]-8-oxo-octanoyl]oxymethyl]-3-[4-(2-pyrrolidin-1-ylethylcarbamoyloxy)decanoyloxy]propyl]O1-[(Z)-oct-3-enyl]octanedioate] | Organ Mean Total Flux Femur (mouse organs; Mouse 5, dose 0.5 mg/kg): 3.1 p/s (×10^6); Organ Mean Total Flux Heart (mouse organs; Mouse 5, dose 0.5 mg/kg): 0.7 p/s (×10^6); Organ Mean Total Flux Kidney (mouse organs; Mouse 5, dose 0.5 mg/kg): 1.6 p/s (×10^6); Organ Mean Total Flux Liver (mouse organs; Mouse 5, dose 0.5 mg/kg): 669.3 p/s (×10^6); Organ Mean Total Flux Lung (mouse organs; Mouse 5, dose 0.5 mg/kg): 12.8 p/s (×10^6); Organ Mean Total Flux Muscle (mouse organs; Mouse 5, dose 0.5 mg/kg): 8.0 p/s (×10^6); Organ Mean Total Flux Pancreas (mouse organs; Mouse 5, dose 0.5 mg/kg): 2.0 p/s (×10^6); Organ Mean Total Flux Spleen (mouse organs; Mouse 5, dose 0.5 mg/kg): 9.5 p/s (×10^6)
– | – | – | – | – | – | – | – | – | – | – | – | – | – | – | – | CCCC/C=C\CCOC(=O)CCCCCC(=O)OCC(COC(=O)CCCCCC(=O)OCC/C=C\CCCC)(COC(=O)CCCCCC(=O)OCC/C=C\CCCC)COC(=O)CCC(CCCCCC)OC(=O)NCCN1CCCC1 (stereo not drawn) [Compound 44, O7-[2,2-bis[[7-[(Z)-oct-3-enoxy]-7-oxo-heptanoyl]oxymethyl]-3-[4-(2-pyrrolidin-1-ylethylcarbamoyloxy)decanoyloxy]propyl]O1-[(Z)-oct-3-enyl]heptanedioate] | Organ Mean Total Flux Femur (mouse organs; Mouse 11, dose 0.5 mg/kg): 5.6 p/s (×10^6); Organ Mean Total Flux Heart (mouse organs; Mouse 11, dose 0.5 mg/kg): 0.7 p/s (×10^6); Organ Mean Total Flux Kidney (mouse organs; Mouse 11, dose 0.5 mg/kg): 1.3 p/s (×10^6); Organ Mean Total Flux Liver (mouse organs; Mouse 11, dose 0.5 mg/kg): 415.7 p/s (×10^6); Organ Mean Total Flux Lung (mouse organs; Mouse 11, dose 0.5 mg/kg): 6.5 p/s (×10^6); Organ Mean Total Flux Muscle (mouse organs; Mouse 11, dose 0.5 mg/kg): 22.6 p/s (×10^6); Organ Mean Total Flux Pancreas (mouse organs; Mouse 11, dose 0.5 mg/kg): 3.1 p/s (×10^6); Organ Mean Total Flux Spleen (mouse organs; Mouse 11, dose 0.5 mg/kg): 36.0 p/s (×10^6)

SMILES | EE % [1, 4] | mRNA Content [1, 4] | EE (%) N/P:6 ([1]; Formulation F1, N/P 6) | EE (%) N/P:6 ([1]; Formulation F2, N/P 6) | EE (%) N/P:6 ([1]; Formulation F3, N/P 6) | EE (%) N/P:6 ([1]; Formulation F4, N/P 6) | Particle Size (nm) [2, 5] | PDI [2, 4] | PDI N/P:6 ([2]; Formulation F1, N/P 6) | Size (nm) N/P:6 ([2]; Formulation F1, N/P 6) | PDI N/P:6 ([2]; Formulation F2, N/P 6) | Size (nm) N/P:6 ([2]; Formulation F2, N/P 6) | PDI N/P:6 ([2]; Formulation F3, N/P 6) | Size (nm) N/P:6 ([2]; Formulation F3, N/P 6) | PDI N/P:6 ([2]; Formulation F4, N/P 6) | Size (nm) N/P:6 ([2]; Formulation F4, N/P 6) | also measured
CCCCCCCCOC(CCC(=O)OCC(COC(=O)CCCCCCOC(=O)C(CCCC)CCCCCC)(COC(=O)CCC(CCCCCC)OC(=O)NCCN1CCCC1)COC(=O)CCC(OCCCCCCCC)OCCCCCCCC)OCCCCCCCC (stereo not drawn) [Compound 20, [7-[2,2-bis(4,4-dioctoxybutanoyloxymethyl)-3-[4-(2-pyrrolidin-1-ylethylcarbamoyloxy)decanoyloxy]propoxy]-7-oxo-heptyl]2-butyloctanoate] | 97% | 98 µg/mL | 100% | 100% | 100% | 100% | 79 nm | 0.02 | 0.06 | 64 ± 1 nm | 0.03 | 76 ± 1 nm | 0.03 | 91 ± 2 nm | 0.05 | 61 ± 1 nm | –
